From US9409891B2, “Solid forms of an antiviral compound” (Gilead Sciences, Inc., priority 2012, dated 2016) come the findings set out here.

In brackets after ≈: the same amount, converted by molar mass.

Data set [1] in a line: First stable form screening (amorphous Compound I in 19 solvents/mixtures at ambient conditions). Type of data set: physicochemical. As to conditions: for 2-Week solids / 24 h solids / solubility: amorphous start, ambient; for solubility: thermodynamic from solid. The procedure:
The first stable form screening was conducted using 19 solvents/mixtures at ambient conditions. The starting material was amorphous. Anti-solvents, either water or heptane, were used to precipitate the solids.
Form I is a hydrate form obtained from ACN/water 50:50 mixture. Form II is an anhydrous form obtained from ACN. […] Solids in water and heptane were amorphous. Other samples remained as solutions.
It appears to be a solvated form. […] Solids in water and heptane remained amorphous. Other samples remained as solution.

Data set [2] can be described thus: Desolvation screening (vacuum oven). Type of data set: physicochemical. As to conditions: heated to about 110~120° C. in a vacuum oven. Here is the method:
Another method of generating anhydrous forms is desolvation. In this study, the solvates and hydrates of Compound I were heated to about 110˜120° C. in a vacuum oven to desolvate.

Data set [3] in a line: Follow-up stable form screening (Form II stirred in solvents at about 22° C.). Type of data set: physicochemical. As to conditions: about 22° C., Form II start. The procedure: In the follow-up stable form screening experiments, the starting materials were Form II. The solids were stirring in the solvents list below at about 22° C. in 2 ml vials.
The nature of data set [4]: Stable form competition study in ACN. Type of data set: physicochemical. As to conditions: ACN mother liquor. Here is the method:
To further verify the stability of Form II, competitive crystallization was conducted by adding Forms I through V into a high concentration solution of amorphous Compound I in ACN. […] The mother liquor obtained, which was saturated in terms of Form II, was used in another test in which other forms (Forms I, III, IV and V) were added.

The conditions of data set [5]: dried at 70° C.
Where [6] appears, read: 2 Me-THF, init. conc. 77.4 mg/mL.
Setting [7] is: Acetone, init. conc. 79.6 mg/mL.
Where [8] appears, read: Heptane, init. conc. 12.7 mg/mL.
Setting [9] is: Toluene, init. conc. 16.2 mg/mL.

Take “5-(3,3-dimethylbutyn-1-yl)-3-[(cis-4-hydroxy-4-{[(3S)-tetrahydrofuran-3-yloxy]methyl}cyclohexyl){[(1R)-4-methylcyclohex-3-en-1-yl]carbonyl}amino]thiophene-2-carboxylic acid hydrate and/or solvate [Form III]”: the “Form conversion in slurry” value in data set [1] (EtOH/water slurry, after 2 weeks of stirring) was “converted to Form IV”. For the same molecule, in data set [1] (solids from EtOH/water, dried), the “Form conversion upon drying” value was “converted to Form IV”.
Take “5-(3,3-dimethylbutyn-1-yl)-3-[(cis-4-hydroxy-4-{[(3S)-tetrahydrofuran-3-yloxy]methyl}cyclohexyl){[(1R)-4-methylcyclohex-3-en-1-yl]carbonyl}amino]thiophene-2-carboxylic acid solvate [Form V]”: the “Final Form after desolvation” value in data set [2] is reported as “Amorphous”.
For orientation: solubility means the dissolved amount per volume that the medium holds. With `CC1=CC[C@H](C(=O)N(c2cc(C#CC(C)(C)C)sc2C(=O)O)[C@H]2CC[C@](O)(CO[C@H]3CCOC3)CC2)CC1.O` (relative stereo) [Form I, 5-(3,3-dimethylbutyn-1-yl)-3-[(cis-4-hydroxy-4-{[(3S)-tetrahydrofuran-3-yloxy]methyl}cyclohexyl){[(1R)-4-methylcyclohex-3-en-1-yl]carbonyl}amino]thiophene-2-carboxylic acid hydrate], the solubility in data set [3] (Water, value for Form I) was determined as 0.25 mg/mL. In data set [4], the “Behaviour of solids added to mother liquor saturated in Form II” value is recorded as “dissolved quickly”. Further, in data set [2], the “Final Form after desolvation” value is recorded as “Amorphous”. In data set [5], the “Solid state after drying (XRPD)” value was “partially became amorphous”.
In data set [3] (EtOH, value for Form IX), `CC1=CC[C@H](C(=O)N(c2cc(C#CC(C)(C)C)sc2C(=O)O)C2CCC(O)(CO[C@H]3CCOC3)CC2)CC1.CCO` (relative stereo) [Form IX, 5-(3,3-dimethylbutyn-1-yl)-3-[(cis-4-hydroxy-4-{[(3S)-tetrahydrofuran-3-yloxy]methyl}cyclohexyl){[(1R)-4-methylcyclohex-3-en-1-yl]carbonyl}amino]thiophene-2-carboxylic acid ethanol solvate] showed a solubility of 283 mg/mL.
The molecule `CC(C)O.CC1=CC[C@H](C(=O)N(c2cc(C#CC(C)(C)C)sc2C(=O)O)C2CCC(O)(CO[C@H]3CCOC3)CC2)CC1` (relative stereo) [Form VII, 5-(3,3-dimethylbutyn-1-yl)-3-[(cis-4-hydroxy-4-{[(3S)-tetrahydrofuran-3-yloxy]methyl}cyclohexyl){[(1R)-4-methylcyclohex-3-en-1-yl]carbonyl}amino]thiophene-2-carboxylic acid isopropyl alcohol solvate] came in with a solubility in data set [3] (IPA, value for Form VII) of 266 mg/mL. Besides, the “Final Form after desolvation” value in data set [2] is “Amorphous”.
`CC1=CC[C@H](C(=O)N(c2cc(C#CC(C)(C)C)sc2C(=O)O)C2CCC(O)(CO[C@H]3CCOC3)CC2)CC1.O` (relative stereo) [Form VIII, 5-(3,3-dimethylbutyn-1-yl)-3-[(cis-4-hydroxy-4-{[(3S)-tetrahydrofuran-3-yloxy]methyl}cyclohexyl){[(1R)-4-methylcyclohex-3-en-1-yl]carbonyl}amino]thiophene-2-carboxylic acid monohydrate]: in data set [2], the “Final Form after desolvation” value is recorded as “VIII”.
`CC1=CC[C@H](C(=O)N(c2cc(C#CC(C)(C)C)sc2C(=O)O)[C@H]2CC[C@](O)(CO[C@H]3CCOC3)CC2)CC1.CCC(C)=O` (relative stereo) [Form X, 5-(3,3-dimethylbutyn-1-yl)-3-[(cis-4-hydroxy-4-{[(3S)-tetrahydrofuran-3-yloxy]methyl}cyclohexyl){[(1R)-4-methylcyclohex-3-en-1-yl]carbonyl}amino]thiophene-2-carboxylic acid methyl ethyl ketone] had a solubility in data set [3] (MEK, value for Form X) of 127 mg/mL.
On to `CC1=CC[C@H](C(=O)N(c2cc(C#CC(C)(C)C)sc2C(=O)O)[C@H]2CC[C@](O)(CO[C@H]3CCOC3)CC2)CC1` [Compound I, 5-(3,3-dimethylbutyn-1-yl)-3-[(cis-4-hydroxy-4-{[(3S)-tetrahydrofuran-3-yloxy]methyl}cyclohexyl){[(1R)-4-methylcyclohex-3-en-1-yl]carbonyl}amino]thiophene-2-carboxylic acid], for which the 2-Week solids result was “solution” in data set [1] (setting [6]); “solution” in data set [1] (setting [7]); “solution” in data set [1] (EtOAc, init. conc. 49.4 mg/mL); “solution” in data set [1] (EtOH, init. conc. 76 mg/mL); “amorphous” in data set [1] (setting [8]); “solution” in data set [1] (IPA, init. conc. 95.4 mg/mL). Further, the 2-Week solids result in data set [1] (IPAc, init. conc. 39.6 mg/mL) is reported as “solution”; in data set [1] (MEK, init. conc. 65.6 mg/mL), “solution”; in data set [1] (MIBK, init. conc. 60.2 mg/mL), “solution”; in data set [1] (MeCl2, init. conc. 36 mg/mL), “solution”; in data set [1] (MeOH, init. conc. 87.4 mg/mL) it was “solution”; in data set [1] (THF, init. conc. 53.4 mg/mL), “solution”. Besides, the 2-Week solids entry in data set [1] (setting [9]) is “solution”; in data set [1] (Water, init. conc. 11 mg/mL), “amorphous”. Besides, the 24 h solids result was “solution” in data set [1] (setting [6]); “solution” in data set [1] (setting [7]); “solution” in data set [1] (EtOAc, init. conc. 49.4 mg/mL); “solution” in data set [1] (EtOH, init. conc. 76 mg/mL); “amorphous” in data set [1] (setting [8]); “solution” in data set [1] (IPA/water, init. conc. 47.7 mg/mL). Besides, the 24 h solids entry in data set [1] (IPA, init. conc. 95.4 mg/mL) was “solution”; in data set [1] (IPAc, init. conc. 39.6 mg/mL) it was “solution”; in data set [1] (MEK, init. conc. 65.6 mg/mL), “solution”; in data set [1] (MIBK, init. conc. 60.2 mg/mL), “solution”; in data set [1] (MTBE, init. conc. >45 mg/mL), “solution”; in data set [1] (MeCl2, init. conc. 36 mg/mL), “solution”. Also, the 24 h solids entry in data set [1] (MeOH, init. conc. 87.4 mg/mL) was “solution”; in data set [1] (THF, init. conc. 53.4 mg/mL), “solution”; in data set [1] (setting [9]), “solution”; in data set [1] (Water, init. conc. 11 mg/mL), “amorphous”. Also, the solubility in data set [1] (aqueous with cosolvent or surfactant or cyclodextrin, ACN/water (50:50), solids I) was 0.23 mg/mL (≈ 0.423 mM); in data set [1] (aqueous with cosolvent or surfactant or cyclodextrin, EtOH/water, solids III then IV), 14.5 mg/mL (≈ 26.7 mM); in data set [1] (aqueous with cosolvent or surfactant or cyclodextrin, IPA/water, 2-week solids V), 1.78 mg/mL (≈ 3.27 mM); in data set [1] (organic solvent or mixture, 2 Me-THF, remained solution) it was > 77.4 mg/mL; in data set [1] (organic solvent or mixture, ACN, solids II) it was 13 mg/mL (≈ 23.9 mM); in data set [1] (organic solvent or mixture, Acetone, remained solution) it was > 79.6 mg/mL. The solubility was > 49.4 mg/mL in data set [1] (organic solvent or mixture, EtOAc, remained solution); > 76 mg/mL in data set [1] (organic solvent or mixture, EtOH, remained solution); > 95.4 mg/mL in data set [1] (organic solvent or mixture, IPA, remained solution); > 39.6 mg/mL in data set [1] (organic solvent or mixture, IPAc, remained solution); > 65.6 mg/mL in data set [1] (organic solvent or mixture, MEK, remained solution); > 60.2 mg/mL in data set [1] (organic solvent or mixture, MIBK, remained solution). Also, the solubility was 316 mg/mL (≈ 581 mM) in data set [1] (organic solvent or mixture, MTBE, 2-week solids V); > 36 mg/mL in data set [1] (organic solvent or mixture, MeCl2, remained solution); > 87.4 mg/mL in data set [1] (organic solvent or mixture, MeOH, remained solution); > 53.4 mg/mL in data set [1] (organic solvent or mixture, THF, remained solution); > 16.2 mg/mL in data set [1] (organic solvent or mixture, Toluene, remained solution).
